In the supplement of paper PMC11208160:

Assay: recombinant UMI read abundance after kanamycin selection (control-corrected) (log10(CPM+1)); higher = more efficient recombination; extreme values may be limits of the assay; sequences stand for … in AGTGCAGAGAAAATCGGCCAGTTTTCTCTGCCTGCAGTCCGCATGCCGTGGGACCCCTTGGGTTCTAACCTGTTGCCTAGATTTATGCAGCGGACTGCCTTTCTCCCAAAGTGATAAACCGG…AGGTTGGTTTCACT; site = the 11-nt donor
Summary of the method: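 The measure is log10(CPM+1) for recombinant UMIs. These were PCR-amplified across the donor–target junction and sequenced after Escherichia coli carrying a donor and donor-binding-loop pair library and a target plasmid with T7-inducible IS621 bridge recombinase was plated on IPTG (0.07 mM) plus kanamycin or unselected. CPM were averaged over two replicates and scaled by control-derived factors.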
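Also: IS621 bridge recombinase in Escherichia coli cells against a fixed T5 target plasmid.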

Sequence	recombinant UMI read abundance (log10)
ATGCAGACATGGACCGGTTTTCCCGGTAATCCGTATTTGCA (site AGGAAGACTTG)	0
ATGCAGACATGGACCGGTTTTCCCGGTAATCCGTATTTGCA (site ATGCAGACTTG)	2.15
ATGCATGCATGGACCGGTTTTCCCGGTAATCCGTATTTGGT (site ATGCATGCTAC)	1.67
ATGCATGCATGGACCGGTTTTCCCGGTAATCCGTATTTGGT (site CTGCATGCTAC)	0.628
ATGCATGCATGGACCGGTTTTCCCGGTAATCCGTATTTGGT (site GTGCATGCTAC)	0.323
ATGCATGCATGGACCGGTTTTCCCGGTAATCCGTATTTGGT (site TTGCATGCTAC)	0.601
ATGCTCGCATGGACCGGTTTTCCCGGTAATCCGTATTTGAA (site ATGCTCGCTTT)	1.82
ATGGCACCATGGACCGGTTTTCCCGGTAATCCGTATTTGGG (site ATGGCACCTCC)	0.00577
ATGGGAGCATGGACCGGTTTTCCCGGTAATCCGTATTTGTA (site ATGGGAGCTTA)	2.2
ATGGGCCCATGGACCGGTTTTCCCGGTAATCCGTATTTGAC (site ATGGGCCCTGT)	0.523
ATGGGTACATGGACCGGTTTTCCCGGTAATCCGTATTTGGC (site ATGGGTACTGC)	2.89
ATGGTAGCATGGACCGGTTTTCCCGGTAATCCGTATTTGGA (site ATGGTAGCTTC)	1.72
ATGGTATCATGGACCGGTTTTCCCGGTAATCCGTATTTGAC (site ATGGTATCTGT)	3.67
ATGGTATCATGGACCGGTTTTCCCGGTAATCCGTATTTGAC (site CTAGTATCTGT)	2.1
ATGGTATCATGGACCGGTTTTCCCGGTAATCCGTATTTGCA (site ACAGTATCTTG)	1.69
ATGGTATCATGGACCGGTTTTCCCGGTAATCCGTATTTGCA (site ATGGTATCTTG)	3.07
ATGGTTTCATGGACCGGTTTTCCCGGTAATCCGTATTTGTA (site ATGGTTTCTTA)	2.68
ATGTACGCATGGACCGGTTTTCCCGGTAATCCGTATTTGGC (site ATGTAAGCTGC)	1.81
ATGTACGCATGGACCGGTTTTCCCGGTAATCCGTATTTGGC (site ATGTACGCTGC)	3.06
ATGTACGCATGGACCGGTTTTCCCGGTAATCCGTATTTGGC (site ATGTAGGCTGC)	0
ATGTACGCATGGACCGGTTTTCCCGGTAATCCGTATTTGGC (site ATGTATGCTGC)	0
ATGTACTCATGGACCGGTTTTCCCGGTAATCCGTATTTGCA (site ATGTACTCTTG)	2.96
ATGTAGCCATGGACCGGTTTTCCCGGTAATCCGTATTTGGC (site ATGTAGACTGC)	0

Sequence	recombinant UMI read abundance (log10)
ATGTAGCCATGGACCGGTTTTCCCGGTAATCCGTATTTGGC (site ATGTAGCCTGC)	0.669
ATGTAGCCATGGACCGGTTTTCCCGGTAATCCGTATTTGGC (site ATGTAGGCTGC)	0
ATGTAGCCATGGACCGGTTTTCCCGGTAATCCGTATTTGGC (site ATGTAGTCTGC)	1.33
ATGTAGGCATGGACCGGTTTTCCCGGTAATCCGTATTTGGC (site AAGTAGGCTGC)	1.22
ATGTAGGCATGGACCGGTTTTCCCGGTAATCCGTATTTGGC (site ACGTAGGCTGC)	1.74
ATGTAGGCATGGACCGGTTTTCCCGGTAATCCGTATTTGGC (site AGGTAGGCTGC)	0.332
ATGTAGGCATGGACCGGTTTTCCCGGTAATCCGTATTTGGC (site ATATAGGCTGC)	2.8
ATGTAGGCATGGACCGGTTTTCCCGGTAATCCGTATTTGGC (site ATCTAGGCTGC)	0.844
ATGTAGGCATGGACCGGTTTTCCCGGTAATCCGTATTTGGC (site ATGAAGGCTGC)	2.35
ATGTAGGCATGGACCGGTTTTCCCGGTAATCCGTATTTGGC (site ATGCAGGCTGC)	2.19
ATGTAGGCATGGACCGGTTTTCCCGGTAATCCGTATTTGGC (site ATGGAGGCTGC)	0
ATGTAGGCATGGACCGGTTTTCCCGGTAATCCGTATTTGGC (site ATGTAAGCTGC)	2.28
ATGTAGGCATGGACCGGTTTTCCCGGTAATCCGTATTTGGC (site ATGTACGCTGC)	0.834
ATGTAGGCATGGACCGGTTTTCCCGGTAATCCGTATTTGGC (site ATGTAGACTGC)	2.34
ATGTAGGCATGGACCGGTTTTCCCGGTAATCCGTATTTGGC (site ATGTAGCCTGC)	0.604
ATGTAGGCATGGACCGGTTTTCCCGGTAATCCGTATTTGGC (site ATGTAGGCTAC)	1.17
ATGTAGGCATGGACCGGTTTTCCCGGTAATCCGTATTTGGC (site ATGTAGGCTCC)	0.328
ATGTAGGCATGGACCGGTTTTCCCGGTAATCCGTATTTGGC (site ATGTAGGCTGA)	2.15
ATGTAGGCATGGACCGGTTTTCCCGGTAATCCGTATTTGGC (site ATGTAGGCTGC)	2.4
ATGTAGGCATGGACCGGTTTTCCCGGTAATCCGTATTTGGC (site ATGTAGGCTGG)	2.41
ATGTAGGCATGGACCGGTTTTCCCGGTAATCCGTATTTGGC (site ATGTAGGCTGT)	2.51
ATGTAGGCATGGACCGGTTTTCCCGGTAATCCGTATTTGGC (site ATGTAGGCTTC)	1.15
ATGTAGGCATGGACCGGTTTTCCCGGTAATCCGTATTTGGC (site ATGTAGTCTGC)	1.06

Sequence	recombinant UMI read abundance (log10)
ATGTAGGCATGGACCGGTTTTCCCGGTAATCCGTATTTGGC (site ATGTATGCTGC)	0.657
ATGTAGGCATGGACCGGTTTTCCCGGTAATCCGTATTTGGC (site ATGTCGGCTGC)	0.474
ATGTAGGCATGGACCGGTTTTCCCGGTAATCCGTATTTGGC (site ATGTGGGCTGC)	0.618
ATGTAGGCATGGACCGGTTTTCCCGGTAATCCGTATTTGGC (site ATGTTGGCTGC)	0.568
ATGTAGGCATGGACCGGTTTTCCCGGTAATCCGTATTTGGC (site ATTTAGGCTGC)	0.516
ATGTAGGCATGGACCGGTTTTCCCGGTAATCCGTATTTGGC (site CTGTAGGCTGC)	0.572
ATGTAGGCATGGACCGGTTTTCCCGGTAATCCGTATTTGGC (site GTGTAGGCTGC)	0.716
ATGTAGGCATGGACCGGTTTTCCCGGTAATCCGTATTTGGC (site TTGTAGGCTGC)	1.95
ATGTAGGCATGGACCGGTTTTCCCGGTAATCCGTATTTGGG (site ATGTAGGCTAC)	0.251
ATGTAGGCATGGACCGGTTTTCCCGGTAATCCGTATTTGGG (site ATGTAGGCTCC)	0.167
ATGTAGGCATGGACCGGTTTTCCCGGTAATCCGTATTTGGG (site ATGTAGGCTGC)	0
ATGTAGGCATGGACCGGTTTTCCCGGTAATCCGTATTTGGG (site ATGTAGGCTTC)	0.0205
ATGTAGGCATGGACCGGTTTTCCCGGTAATCCGTATTTGTC (site ATGTAGGCTGA)	2.72
ATGTAGGCATGGACCGGTTTTCCCGGTAATCCGTATTTGTC (site ATGTAGGCTGC)	1.62
ATGTAGGCATGGACCGGTTTTCCCGGTAATCCGTATTTGTC (site ATGTAGGCTGG)	2.52
ATGTAGGCATGGACCGGTTTTCCCGGTAATCCGTATTTGTC (site ATGTAGGCTGT)	1.91
ATGTATACATGGACCGGTTTTCCCGGTAATCCGTATTTGCA (site ATGTATACTTG)	2.39
ATGTCGACATGGACCGGTTTTCCCGGTAATCCGTATTTGCG (site ATGTCGACTCG)	0.954
ATGTCGGCATGGACCGGTTTTCCCGGTAATCCGTATTTGGC (site ATGTAGGCTGC)	0.445
ATGTCGGCATGGACCGGTTTTCCCGGTAATCCGTATTTGGC (site ATGTCGGCTGC)	2.2
ATGTCGGCATGGACCGGTTTTCCCGGTAATCCGTATTTGGC (site ATGTGGGCTGC)	0
ATGTCGGCATGGACCGGTTTTCCCGGTAATCCGTATTTGGC (site ATGTTGGCTGC)	0.0547
